Results on 14 compounds are retold here after the Kinase Knowledgebase extract (Sharma et al. 2016).

Experiment [1] concerns the target PIK3CG (human) (UniProt P48736). Nature of the experiment: Enzyme Assay.
Experiment [2] deals with PIK3CA (human) (UniProt P42336). As to the kind of experiment: Enzyme Assay.
In experiment [3] the target is PIK3CD (Human) (UniProt O00329). As to the kind of experiment: Enzyme Assay.
Experiment [4] deals with PIK3CG (human) (UniProt P48736). As to the kind of experiment: Cell-Based Assay. Particulars: u937.
In experiment [5] the target is PIK3CA (human) (UniProt P42336). Nature of the experiment: Cell-Based Assay. Particulars: rat-1.
Experiment [6] deals with PIK3CD (Human) (UniProt O00329). Nature of the experiment: Cell-Based Assay. Particulars: rat-1.

Sequence of PIK3CG (human) (P48736 whole entry, looked up): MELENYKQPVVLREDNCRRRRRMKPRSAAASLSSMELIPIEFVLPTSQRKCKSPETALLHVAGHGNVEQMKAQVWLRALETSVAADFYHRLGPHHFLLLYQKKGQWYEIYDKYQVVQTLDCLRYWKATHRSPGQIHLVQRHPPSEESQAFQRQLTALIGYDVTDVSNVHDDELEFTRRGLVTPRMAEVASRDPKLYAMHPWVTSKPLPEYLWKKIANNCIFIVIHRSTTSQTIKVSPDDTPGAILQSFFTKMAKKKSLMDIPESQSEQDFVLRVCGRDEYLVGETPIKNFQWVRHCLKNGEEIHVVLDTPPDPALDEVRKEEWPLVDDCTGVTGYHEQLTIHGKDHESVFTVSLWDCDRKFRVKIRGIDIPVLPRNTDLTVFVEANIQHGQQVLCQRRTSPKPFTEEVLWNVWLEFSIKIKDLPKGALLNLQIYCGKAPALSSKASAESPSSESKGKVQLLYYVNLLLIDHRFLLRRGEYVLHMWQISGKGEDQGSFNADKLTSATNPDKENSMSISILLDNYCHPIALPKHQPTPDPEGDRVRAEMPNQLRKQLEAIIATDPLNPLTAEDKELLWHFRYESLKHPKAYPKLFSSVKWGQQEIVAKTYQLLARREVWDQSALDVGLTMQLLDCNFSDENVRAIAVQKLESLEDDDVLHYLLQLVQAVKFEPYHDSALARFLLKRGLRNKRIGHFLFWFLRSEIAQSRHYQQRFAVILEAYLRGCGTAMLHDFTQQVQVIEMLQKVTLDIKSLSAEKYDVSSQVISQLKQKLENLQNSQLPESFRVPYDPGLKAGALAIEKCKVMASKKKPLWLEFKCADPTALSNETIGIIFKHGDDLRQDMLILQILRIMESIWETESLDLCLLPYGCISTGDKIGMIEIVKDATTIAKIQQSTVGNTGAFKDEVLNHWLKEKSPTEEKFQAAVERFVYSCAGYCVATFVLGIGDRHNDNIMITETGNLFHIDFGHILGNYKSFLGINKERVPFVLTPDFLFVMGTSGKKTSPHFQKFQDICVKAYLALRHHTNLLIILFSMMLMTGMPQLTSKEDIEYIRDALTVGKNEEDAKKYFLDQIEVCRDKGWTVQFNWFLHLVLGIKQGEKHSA
Sequence of PIK3CA (human) (P42336 whole entry, looked up): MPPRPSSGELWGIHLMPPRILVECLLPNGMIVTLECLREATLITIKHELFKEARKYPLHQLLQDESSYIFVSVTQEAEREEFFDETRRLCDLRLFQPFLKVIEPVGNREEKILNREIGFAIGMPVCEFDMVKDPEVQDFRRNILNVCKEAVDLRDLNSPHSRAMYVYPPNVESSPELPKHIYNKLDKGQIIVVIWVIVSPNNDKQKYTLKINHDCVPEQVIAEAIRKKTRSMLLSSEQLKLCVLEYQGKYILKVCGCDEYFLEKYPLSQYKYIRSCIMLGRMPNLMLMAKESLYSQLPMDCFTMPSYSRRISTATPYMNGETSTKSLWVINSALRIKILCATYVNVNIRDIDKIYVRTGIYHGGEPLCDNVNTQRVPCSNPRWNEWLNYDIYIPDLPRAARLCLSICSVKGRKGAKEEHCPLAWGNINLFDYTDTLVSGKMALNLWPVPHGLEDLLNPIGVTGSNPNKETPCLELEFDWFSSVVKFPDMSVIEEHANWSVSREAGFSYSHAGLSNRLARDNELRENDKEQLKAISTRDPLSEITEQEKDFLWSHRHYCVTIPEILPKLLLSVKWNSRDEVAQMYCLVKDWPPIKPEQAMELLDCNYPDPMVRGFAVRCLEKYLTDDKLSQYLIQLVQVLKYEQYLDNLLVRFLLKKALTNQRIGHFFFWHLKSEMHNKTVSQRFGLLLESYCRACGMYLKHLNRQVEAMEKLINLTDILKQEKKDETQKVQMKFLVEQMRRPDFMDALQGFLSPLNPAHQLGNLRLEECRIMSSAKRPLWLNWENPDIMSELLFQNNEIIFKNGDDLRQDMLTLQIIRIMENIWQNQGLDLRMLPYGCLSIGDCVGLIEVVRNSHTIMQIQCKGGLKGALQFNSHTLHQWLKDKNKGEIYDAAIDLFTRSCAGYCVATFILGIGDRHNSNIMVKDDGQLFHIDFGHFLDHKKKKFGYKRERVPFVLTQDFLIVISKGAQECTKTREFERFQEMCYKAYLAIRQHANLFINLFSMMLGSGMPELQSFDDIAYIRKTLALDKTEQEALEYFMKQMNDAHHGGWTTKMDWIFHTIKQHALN
Sequence of PIK3CD (Human) (O00329 whole entry, looked up): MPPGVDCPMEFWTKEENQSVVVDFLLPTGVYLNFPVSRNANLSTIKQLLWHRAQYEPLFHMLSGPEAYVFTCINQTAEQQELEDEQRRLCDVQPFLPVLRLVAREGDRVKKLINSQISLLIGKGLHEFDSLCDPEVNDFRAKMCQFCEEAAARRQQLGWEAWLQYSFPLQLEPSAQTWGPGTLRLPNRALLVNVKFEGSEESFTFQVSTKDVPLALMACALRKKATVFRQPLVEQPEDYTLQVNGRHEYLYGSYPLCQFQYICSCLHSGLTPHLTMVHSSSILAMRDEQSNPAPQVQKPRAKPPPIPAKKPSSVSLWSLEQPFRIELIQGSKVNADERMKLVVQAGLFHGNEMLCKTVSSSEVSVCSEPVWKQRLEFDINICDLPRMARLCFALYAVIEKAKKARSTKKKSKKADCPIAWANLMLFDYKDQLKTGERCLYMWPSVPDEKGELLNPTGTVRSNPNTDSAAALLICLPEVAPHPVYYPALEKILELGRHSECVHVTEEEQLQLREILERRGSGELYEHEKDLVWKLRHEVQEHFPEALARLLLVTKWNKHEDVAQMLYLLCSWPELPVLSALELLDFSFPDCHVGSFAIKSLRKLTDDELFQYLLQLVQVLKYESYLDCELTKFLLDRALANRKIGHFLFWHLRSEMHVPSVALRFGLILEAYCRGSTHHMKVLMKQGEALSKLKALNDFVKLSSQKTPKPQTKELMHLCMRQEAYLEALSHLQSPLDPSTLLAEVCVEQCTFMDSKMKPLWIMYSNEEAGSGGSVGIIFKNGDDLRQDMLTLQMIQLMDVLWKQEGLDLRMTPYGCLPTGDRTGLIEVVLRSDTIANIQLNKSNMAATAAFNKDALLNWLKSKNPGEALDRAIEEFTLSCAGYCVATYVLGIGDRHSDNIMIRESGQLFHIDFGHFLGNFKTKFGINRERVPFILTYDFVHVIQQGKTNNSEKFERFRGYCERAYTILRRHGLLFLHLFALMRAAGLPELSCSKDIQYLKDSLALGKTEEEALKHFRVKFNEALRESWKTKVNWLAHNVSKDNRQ

With `Cc1nc(N)nc(N2C[C@@H](O)C[C@H]2c2nc3cccc(C(F)(F)F)c3c(=O)n2-c2cccc(F)c2)c1C#N`, the IC50 on PIK3CG (human) [1] was determined as 80 nM; against PIK3CA (human) [2] it was 1.7 µM; at PIK3CD (Human) [3] it was 24 nM; against PIK3CG (human) [4], 10 nM; on PIK3CA (human) [5], 6.57 µM; on PIK3CD (Human) [6] it was 16 nM.
In the case of `Cc1nc(N)nc(N2C[C@@H](O)C[C@H]2c2nc3cccc(C(F)(F)F)c3c(=O)n2-c2cc(F)cc(F)c2)c1C#N`, the IC50 at PIK3CG (human) [1] is 890 nM; at PIK3CA (human) [2], 3.1 µM; against PIK3CD (Human) [3], 97 nM; at PIK3CG (human) [4], 60 nM; on PIK3CA (human) [5], 8.84 µM; on PIK3CD (Human) [6], 42 nM.
Turning to `CS(=O)(=O)N1CC[C@H](n2c([C@@H]3CCCN3c3ncnc4[nH]cnc34)nc3cccc(Cl)c3c2=O)C1`, the IC50 is 370 nM at PIK3CG (human) [1]; above 10 µM at PIK3CA (human) [2]; 360 nM on PIK3CD (Human) [3]; above 10000 nM on PIK3CG (human) [4]; above 10 µM at PIK3CA (human) [5]; 939 nM at PIK3CD (Human) [6].
Consider `Cc1nc(N)nc(N2C[C@@H](O)C[C@H]2c2nc3ccc(F)c(C4CC4)c3c(=O)n2-c2ccccc2)c1C#N`, for which the IC50 against PIK3CG (human) [1] came to 11 nM; against PIK3CA (human) [2] it was 0.11 µM; against PIK3CD (Human) [3], 4 nM; against PIK3CG (human) [4] it was 35 nM; against PIK3CA (human) [5], 2.37 µM; against PIK3CD (Human) [6], 6 nM.
For `N#Cc1c(N)ncnc1N1CCC[C@H]1c1nc2cccc(C(F)(F)F)c2c(=O)n1-c1cccc(F)c1`, the IC50 at PIK3CG (human) [1] was 660 nM; on PIK3CA (human) [2] it was 5.6 µM; at PIK3CD (Human) [3] it was 19 nM; at PIK3CG (human) [4], 718 nM; against PIK3CA (human) [5], 9.95 µM; against PIK3CD (Human) [6], 38 nM.
Turning to `N#Cc1c(N)ncnc1N1C[C@@H](O)C[C@H]1c1nc2cccc(C(F)(F)F)c2c(=O)n1-c1cccnc1`, the IC50 against PIK3CG (human) [1] is 1300 nM; at PIK3CA (human) [2] it was 3.8 µM; at PIK3CD (Human) [3] it was 84 nM; against PIK3CG (human) [4] it was 163 nM; against PIK3CA (human) [5], 3.86 µM; at PIK3CD (Human) [6] it was 86 nM.
For the compound `Nc1nc(N2C[C@@H](O)C[C@H]2c2nc3cccc(C(F)(F)F)c3c(=O)n2-c2ccccc2)c2nccn2n1`, the IC50 at PIK3CG (human) [1] was 31 nM; on PIK3CA (human) [2], 3.3 µM; at PIK3CD (Human) [3], 26 nM; against PIK3CG (human) [4], 31 nM; on PIK3CA (human) [5], above 10 µM; against PIK3CD (Human) [6], 90 nM.
As to `Nc1nc(N2CCC[C@H]2c2nc3cccc(Cl)c3c(=O)n2N2CCOCC2)c2nccn2n1`, the IC50 is 190 nM against PIK3CG (human) [1]; 2.6 µM against PIK3CA (human) [2]; 22 nM against PIK3CD (Human) [3]; 399 nM against PIK3CG (human) [4]; above 10 µM against PIK3CA (human) [5]; 130 nM against PIK3CD (Human) [6].
With `Cc1nc(N)nc(N2C[C@@H](O)C[C@H]2c2nc3cccc(OC(F)F)c3c(=O)n2-c2ccccc2)c1C#N`, the IC50 was found to be 140 nM on PIK3CG (human) [1]; 0.45 µM against PIK3CA (human) [2]; 75 nM at PIK3CD (Human) [3]; 70 nM on PIK3CG (human) [4]; 4.67 µM on PIK3CA (human) [5]; 45 nM on PIK3CD (Human) [6].
Turning to `N#Cc1c(N)ncnc1N1OCC[C@H]1c1nc2cccc(Cl)c2c(=O)n1-c1ccccc1`, the IC50 is 44 nM on PIK3CG (human) [1]; 2 µM on PIK3CA (human) [2]; below 3 nM against PIK3CD (Human) [3]; 144 nM at PIK3CG (human) [4]; 3.69 µM against PIK3CA (human) [5]; 14 nM against PIK3CD (Human) [6].
For `Cc1nc(N)nc(N2CCC[C@H]2c2nc3cccc(C(F)(F)F)c3c(=O)n2-c2cncc(F)c2)c1C#N`, the IC50 against PIK3CG (human) [1] was found to be 240 nM; on PIK3CA (human) [2] it was 4.5 µM; against PIK3CD (Human) [3] it was 50 nM; on PIK3CG (human) [4], 92 nM; on PIK3CA (human) [5], 8.74 µM; against PIK3CD (Human) [6], 56 nM.
As to `O=c1c2c(Cl)cccc2nc([C@@H]2CCCN2c2ncnc3scnc23)n1-c1ccccc1`, the IC50 against PIK3CG (human) [1] came out at 81 nM; on PIK3CA (human) [2] it was 5.1 µM; against PIK3CD (Human) [3], 4 nM; against PIK3CG (human) [4], 215 nM; on PIK3CA (human) [5] it was 4.69 µM; against PIK3CD (Human) [6], 51 nM.
Consider `N#Cc1c(N)ncnc1N1C[C@@H](O)C[C@H]1c1nc2ccc(F)c(F)c2c(=O)n1-c1ccccc1`, for which the IC50 at PIK3CG (human) [1] was 1300 nM; on PIK3CA (human) [2], 4 µM; on PIK3CD (Human) [3], 96 nM; against PIK3CG (human) [4], 1590 nM; against PIK3CA (human) [5], above 10 µM; against PIK3CD (Human) [6], 45 nM.
As to `CO[C@H]1C[C@@H](c2nc3cccc(Cl)c3c(=O)n2C2CC2)N(c2ncnc(N)c2C#N)C1`, the 50% inhibitory concentration (IC50) was 417 nM against PIK3CG (human) [1]; 2.8 µM on PIK3CA (human) [2]; 128 nM on PIK3CD (Human) [3]; 473 nM on PIK3CG (human) [4]; 3.23 µM at PIK3CA (human) [5]; 26 nM against PIK3CD (Human) [6].
